Experiment [1] deals with nmyc01 (DNA, i motif) ACCCCCTGCATCTGCATGCCCCCTCCCACCCCCT
Briefly: fluorescence titration (alkaloid quenching). The conditions noted are these: 5 mM KCl; acetate 10 mM pH 5; overall constant of the 1:4 DNA:ligand model, not per site; non-specific binding possible.

The subject of experiment [2] is DL40 (DNA, G4) GGTTTTGGCAGGGTTTTGGT
Briefly: CD melting, 291 nm. The conditions noted are these: 5 mM KCl; 10 mM KH2PO4 pH 7; 2 µM DNA, 8 µM compound.

For experiment [3], the system named is GG1 (DNA, G4) GGGCGGGCGCGAGGGAGGGT
Briefly: CD melting, 261 nm. The following applies: 5 mM KCl; 10 mM KH2PO4 pH 7; 2 µM DNA, 8 µM compound.

Experiment [4] has as its system 22nt (DNA, i motif) CCCTAACCCTAACCCTAACCCT
Briefly: CD melting, 287 nm. The conditions noted are these: Na+ (0.2 M CH3COONa); acetate pH 5; 2 µM DNA, 8 µM compound.

In experiment [5] the test system is ckit21T12T21 (DNA, G4) CGGGCGGGCGCTAGGGAGGGT
Briefly: 1H NMR titration (imino and aromatic protons). The conditions noted are these: 20 mM KCl; 5 mM KH2PO4 pH 6.9, 25 °C; stacks over external tetrads.

The test system of experiment [6] is nmyc01 (DNA, i motif) ACCCCCTGCATCTGCATGCCCCCTCCCACCCCCT
Briefly: CD melting, 287 nm. The conditions noted are these: Na+ (0.2 M CH3COONa); acetate pH 5; 2 µM DNA, 8 µM compound.

The subject of experiment [7] is DL40 (DNA, G4) GGTTTTGGCAGGGTTTTGGT
Briefly: fluorescence titration (alkaloid quenching). The conditions noted are these: 5 mM KCl; phosphate 10 mM pH 7; overall constant of the 1:4 DNA:ligand model, not per site; non-specific binding possible.

The subject of experiment [8] is 22nt (DNA, i motif) CCCTAACCCTAACCCTAACCCT
Briefly: fluorescence titration (alkaloid quenching). The following applies: 5 mM KCl; acetate 10 mM pH 5; overall constant of the 1:4 DNA:ligand model, not per site; non-specific binding possible.

In experiment [9] the test system is nmyc01m (DNA, i motif) ACCCCCTGCATCTTTTTGCCCCCTCCCACCCCCT
Briefly: fluorescence titration (alkaloid quenching). The conditions noted are these: 5 mM KCl; acetate 10 mM pH 5; overall constant of the 1:5 DNA:ligand model, not per site; non-specific binding possible.

The subject of experiment [10] is nmyc01 (DNA, i motif) ACCCCCTGCATCTGCATGCCCCCTCCCACCCCCT
Briefly: 1H NMR titration (imino protons). The following applies: Na+ (sodium phosphate); pH 5.0, 25 °C; hairpin Watson-Crick signals disappear at R = 0.25.

Experiment [11] relates to GG1 (DNA, G4) GGGCGGGCGCGAGGGAGGGT
Briefly: fluorescence titration (alkaloid quenching). The conditions noted are these: 5 mM KCl; phosphate 10 mM pH 7; overall constant of the 1:5 DNA:ligand model, not per site; non-specific binding possible.

Experiment [12] relates to 22nt (DNA, i motif) CCCTAACCCTAACCCTAACCCT
Briefly: 1H NMR titration (imino protons). The conditions noted are these: Na+ (sodium phosphate); pH 5.0, 25 °C; only small insignificant imino changes.

Experiment [13] has as its system nmyc01m (DNA, i motif) ACCCCCTGCATCTTTTTGCCCCCTCCCACCCCCT
Briefly: CD melting, 287 nm. The following applies: Na+ (0.2 M CH3COONa); acetate pH 5; 2 µM DNA, 8 µM compound.

Experiment [14] has as its system DL40 (DNA, G4) GGTTTTGGCAGGGTTTTGGT
Briefly: 1H NMR titration (imino and aromatic protons). The conditions noted are these: 150 mM NaCl; sodium phosphate pH 6.8, 25 °C; new imino signals, single conformation at R ≥ 1.0.

For experiment [15], the system named is nmyc01m (DNA, i motif) ACCCCCTGCATCTTTTTGCCCCCTCCCACCCCCT
Briefly: 1H NMR titration (imino protons). The conditions noted are these: Na+ (sodium phosphate); pH 5.0, 25 °C; no change in imino resonances.

Regarding `COc1ccc2c(c1O)C[N+]1(C)CCc3cc4c(cc3C1C2)OCO4` (stereo not drawn), the “Log Ka” value in [1] is given as 18.21 ± 0.17; in experiment [7], 18.46 ± 0.05; in experiment [8], 17.64 ± 0.12; in experiment [9], 22.61 ± 0.08; in experiment [11] it was 22.39 ± 0.03. Further, the thermal shift (ΔTm) in experiment [2] was 5.2 °C; in [3], 1.7 °C; in experiment [4], 0.7 °C; in experiment [6], −0.3 °C; in experiment [13], −0.6 °C. Besides, the binding result in experiment [5] is on record as “yes”; in experiment [10] it was “weak”; in experiment [12] it was “no”; in experiment [14] it was “yes”; in experiment [15] it was “no”.
